Assay results as given in US8415469B2, “Compounds and methods for kinase modulation, and indications therefor” (Plexxikon Inc., priority 2005, dated 2013).

How the values were obtained:
Type in all cases: biochemical
Flt1 = target: T1, Flt1 (Homo sapiens, UniProt P17948); test: AlphaScreen kinase assay, Flt1; details: read-out: IC50, activity toward kinase Flt1
T1 construct: P1826.pETN6 BI-PTP FLT1 M799-D1165-X WT; His6 (N); made in house; host or cells: E. coli (PTP1B co-expressed)
T1 sequence (P17948 with tags, fused parts or gaps): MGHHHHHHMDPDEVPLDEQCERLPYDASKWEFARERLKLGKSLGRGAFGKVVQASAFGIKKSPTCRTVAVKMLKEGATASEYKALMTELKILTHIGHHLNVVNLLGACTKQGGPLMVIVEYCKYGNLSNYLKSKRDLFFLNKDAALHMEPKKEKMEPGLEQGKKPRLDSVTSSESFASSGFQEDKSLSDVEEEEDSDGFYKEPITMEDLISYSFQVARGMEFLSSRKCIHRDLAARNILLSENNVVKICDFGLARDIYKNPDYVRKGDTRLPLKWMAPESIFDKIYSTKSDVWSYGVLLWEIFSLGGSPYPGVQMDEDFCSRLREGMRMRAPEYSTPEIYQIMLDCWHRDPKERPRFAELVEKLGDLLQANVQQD

Akt3 = Akt3 (Homo sapiens, UniProt Q9Y243); test: AlphaScreen kinase assay, Akt3; details: read-out: IC50, activity toward kinase Akt3
Summary of the method: (§1)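 Stock 20 mM compound in DMSO, diluted 1:3 serially to 8 final concentrations. Kinase phosphorylates biotinylated peptide; donor (streptavidin) and acceptor (anti-phospho antibody) beads then associate. Reduced acceptor emission indicates inhibition.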

Kit = target: T2, Kit (Homo sapiens, UniProt P10721); test: AlphaScreen kinase assay, Kit; details: read-out: IC50, activity toward kinase Kit
T2 construct: P1332.N6 BI PTP KIT M552-K948-X COD; His6 (N); made in house; host or cells: E. coli (PTP1B co-expressed)

Met = target: T3, Met (Homo sapiens, UniProt P08581); test: AlphaScreen kinase assay, Met; details: read-out: IC50, activity toward kinase Met
T3 construct: P1818.pETN6 BI-PTP MET G1056-G1364-X WT; His6 (N); made in house; host or cells: E. coli (PTP1B co-expressed)
Summary of the method: as §1

Jnk3 = target: T4, Jnk3 (Homo sapiens, UniProt P53779); test: AlphaScreen kinase assay, Jnk3; details: read-out: IC50, activity toward kinase Jnk3
T4 construct: purchased Upstate Biotechnology

Itk = target: T5, Itk (Homo sapiens, UniProt Q08881); test: AlphaScreen kinase assay, Itk; details: read-out: IC50, activity toward kinase Itk
T5 sequence (Q08881 1-620): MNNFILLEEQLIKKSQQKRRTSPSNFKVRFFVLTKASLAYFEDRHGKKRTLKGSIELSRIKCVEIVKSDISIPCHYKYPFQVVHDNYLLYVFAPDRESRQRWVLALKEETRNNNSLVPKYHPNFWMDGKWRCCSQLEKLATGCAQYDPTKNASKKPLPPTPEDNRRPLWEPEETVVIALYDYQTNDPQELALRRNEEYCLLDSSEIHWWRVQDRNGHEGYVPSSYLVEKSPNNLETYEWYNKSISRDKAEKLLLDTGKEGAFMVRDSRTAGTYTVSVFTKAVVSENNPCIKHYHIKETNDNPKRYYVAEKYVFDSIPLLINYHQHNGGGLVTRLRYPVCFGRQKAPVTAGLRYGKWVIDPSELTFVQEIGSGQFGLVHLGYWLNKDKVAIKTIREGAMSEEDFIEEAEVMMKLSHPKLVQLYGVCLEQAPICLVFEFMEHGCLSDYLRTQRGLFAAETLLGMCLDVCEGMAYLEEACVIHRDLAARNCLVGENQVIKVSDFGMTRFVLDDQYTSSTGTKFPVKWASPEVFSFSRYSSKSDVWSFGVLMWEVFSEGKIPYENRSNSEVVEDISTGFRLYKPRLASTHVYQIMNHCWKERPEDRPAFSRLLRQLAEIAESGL
Description: (§2) AlphaScreen assay was used to screen additional kinases. The assay is similarly dependent on the phosphorylation of a peptide substrate. In this assay, an antibody that recognizes phosphorylated substrate is bound to an acceptor bead. The peptide substrate is attached to biotin, which binds to a donor head that contains streptavidin. Thus phosphorylated substrate is bound by antibody and streptavidin, bringing the donor and acceptor heads into close proximity when kinase is not inhibited. The donor produces singlet oxygen which results in emission from the acceptor when they are in close proximity. Conversely, when kinase is inhibited, the donor and acceptor beads are not associated and the emission from the acceptor is reduced.
(§3) AlphaScreen assays were done using compounds dissolved in DMSO to a concentration of 20 mM. The compounds were diluted accordingly to the desired final concentrations in each sample well, using 1:3 serial dilution for a total of 8 concentration points.

Kdr = target: T6, Kdr (Homo sapiens, UniProt P35968); test: Z'-Lyte FRET kinase assay (Invitrogen), Kdr; details: read-out: IC50, activity toward kinase Kdr
T6 construct: purchased Invitrogen (assay run by Invitrogen)

B-Raf V600E = target: T7, B-Raf V600E (Homo sapiens, UniProt P15056, V600E); test: AlphaScreen kinase assay, B-Raf V600E; details: read-out: IC50, activity toward kinase B-Raf V600E
T7 construct: P4254. pFastBacBD-CDC37 BRAF D437-K722-X, V600E; His6 with pFastBac HT leader (TEV site) (N); made in house; host or cells: Sf9 (baculovirus; chaperone CDC37 co-expressed)

FGFR1 = target: T8, FGFR1 (Homo sapiens, UniProt P11362, C488A/C584S); test: AlphaScreen kinase assay, FGFR1; details: read-out: IC50, activity toward kinase FGFR
T8 construct: P1351.pET N6 BI-PTP FGFR A458-E765-X C488A, C584S; made in house; host or cells: E. coli (PTP1B co-expressed)

Fak = target: T9, Fak (Homo sapiens, UniProt Q05397); test: AlphaScreen kinase assay, Fak; details: read-out: IC50, activity toward kinase Fak
T9 construct: P1358.pFastBacHtb FAK S411-Q686-X; His6 with pFastBacHTb leader (TEV site) (N); made in house; host or cells: Sf9 (baculovirus)

Btk = target: T10, Btk (Homo sapiens, UniProt Q06187); test: Z'-Lyte FRET kinase assay (Invitrogen), Btk; details: read-out: IC50, activity toward kinase Btk
T10 construct: purchased Invitrogen (assay run by Invitrogen)

Plk1 = Plk1 (Homo sapiens, UniProt P53350); test: AlphaScreen kinase assay, Plk1; details: read-out: IC50, activity toward kinase Plk1
Description: as §2, §3

Ret = target: T11, Ret (Homo sapiens, UniProt P07949); test: AlphaScreen kinase assay, Ret; details: read-out: IC50, activity toward kinase Ret
T11 construct: P1378.pET-SF BI-PTP RET H661-R1012 HIS; made in house
T11 sequence (P07949 with tags, fused parts or gaps): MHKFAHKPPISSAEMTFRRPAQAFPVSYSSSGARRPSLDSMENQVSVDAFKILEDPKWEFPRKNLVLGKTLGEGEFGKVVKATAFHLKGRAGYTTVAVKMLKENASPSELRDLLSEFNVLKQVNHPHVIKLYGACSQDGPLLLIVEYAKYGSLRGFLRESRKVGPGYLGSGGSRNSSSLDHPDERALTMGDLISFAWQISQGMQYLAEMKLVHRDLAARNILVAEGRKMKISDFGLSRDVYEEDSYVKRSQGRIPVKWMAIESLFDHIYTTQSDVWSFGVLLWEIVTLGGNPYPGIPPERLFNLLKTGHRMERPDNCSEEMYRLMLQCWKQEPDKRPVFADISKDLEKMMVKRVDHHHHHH

Jnk1 = target: T12, Jnk1 (Homo sapiens, UniProt P45983); test: AlphaScreen kinase assay, Jnk1; details: read-out: IC50, activity toward kinase Jnk1
T12 construct: purchased Upstate Biotechnology

Abl = target: T13, Abl (Homo sapiens, UniProt P00519); test: AlphaScreen kinase assay, Abl; details: read-out: activity toward kinase Abl, IC50
T13 construct: P1121. pET-SPEC BI-PTP Abl G227-V515-X; His6 (N); made in house; host or cells: E. coli (PTP1B co-expressed)
T13 sequence (P00519 with tags, fused parts or gaps): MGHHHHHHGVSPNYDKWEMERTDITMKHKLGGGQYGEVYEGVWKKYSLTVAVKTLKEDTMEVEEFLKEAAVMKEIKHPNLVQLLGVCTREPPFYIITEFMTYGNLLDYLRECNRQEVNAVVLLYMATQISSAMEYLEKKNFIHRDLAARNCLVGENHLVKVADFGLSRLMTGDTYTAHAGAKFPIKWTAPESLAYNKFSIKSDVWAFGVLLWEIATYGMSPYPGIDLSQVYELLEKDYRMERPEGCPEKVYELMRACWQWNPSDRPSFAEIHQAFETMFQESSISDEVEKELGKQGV
Summary of the method: as §1

B-Raf = target: T14, B-Raf (Homo sapiens, UniProt P15056); test: AlphaScreen kinase assay, B-Raf; details: read-out: IC50, activity toward kinase B-Raf
T14 construct: purchased Upstate Biotechnology

Jnk2 = target: T15, Jnk2 (Homo sapiens, UniProt P45984); test: AlphaScreen kinase assay, Jnk2; details: read-out: IC50, activity toward kinase Jnk2
T15 construct: purchased Roche Protein Expression Group (Indianapolis, IN)
Summary of the method: as §1

Flt4 = target: T16, Flt4 (Homo sapiens, UniProt P35916); test: AlphaScreen kinase assay, Flt4; details: read-out: IC50, activity toward kinase Flt4
T16 construct: purchased ProQinase GmbH (Freiburg, Germany)
Summary of the method: as §1

Fms = target: T17, Fms (Homo sapiens, UniProt P07333); test: AlphaScreen kinase assay, Fms; details: read-out: IC50, activity toward kinase Fms
T17 construct: purchased Upstate Biotechnology

c-Raf-1 = target: T18, c-Raf-1 (Homo sapiens, UniProt P04049); test: AlphaScreen kinase assay, c-Raf-1; details: read-out: IC50, activity toward kinase c-Raf-1
T18 construct: purchased Upstate Biotechnology

Stk6 = target: T19, Stk6 (Homo sapiens, UniProt O14965); test: Z'-Lyte FRET kinase assay (Invitrogen), Stk6; details: read-out: IC50, activity toward kinase Stk6
T19 construct: purchased Invitrogen (Carlsbad, Calif.), screening service
T19 sequence (O14965 1-403): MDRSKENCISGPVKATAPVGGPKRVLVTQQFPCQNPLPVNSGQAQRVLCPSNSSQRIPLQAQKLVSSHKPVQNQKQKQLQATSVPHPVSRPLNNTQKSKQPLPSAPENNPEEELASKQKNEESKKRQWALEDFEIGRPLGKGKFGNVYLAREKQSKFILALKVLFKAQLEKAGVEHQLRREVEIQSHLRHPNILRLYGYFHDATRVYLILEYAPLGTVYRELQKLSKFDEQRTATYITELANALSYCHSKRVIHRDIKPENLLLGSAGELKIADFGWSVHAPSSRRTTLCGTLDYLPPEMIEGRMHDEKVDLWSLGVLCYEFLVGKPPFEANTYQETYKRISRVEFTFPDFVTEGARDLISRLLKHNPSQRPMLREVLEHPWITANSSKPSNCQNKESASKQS

Measured: IC50

T7 sequence (P15056 with tags, fused parts or gaps V600E): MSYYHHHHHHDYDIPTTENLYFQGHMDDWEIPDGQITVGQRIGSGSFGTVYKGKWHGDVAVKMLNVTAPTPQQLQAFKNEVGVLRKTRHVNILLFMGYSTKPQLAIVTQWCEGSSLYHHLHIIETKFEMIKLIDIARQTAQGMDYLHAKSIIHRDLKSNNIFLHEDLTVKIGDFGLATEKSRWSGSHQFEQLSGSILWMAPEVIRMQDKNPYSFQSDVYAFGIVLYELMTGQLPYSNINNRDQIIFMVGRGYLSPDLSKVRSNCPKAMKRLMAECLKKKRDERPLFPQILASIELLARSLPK
T2 sequence (P10721 with tags, fused parts or gaps): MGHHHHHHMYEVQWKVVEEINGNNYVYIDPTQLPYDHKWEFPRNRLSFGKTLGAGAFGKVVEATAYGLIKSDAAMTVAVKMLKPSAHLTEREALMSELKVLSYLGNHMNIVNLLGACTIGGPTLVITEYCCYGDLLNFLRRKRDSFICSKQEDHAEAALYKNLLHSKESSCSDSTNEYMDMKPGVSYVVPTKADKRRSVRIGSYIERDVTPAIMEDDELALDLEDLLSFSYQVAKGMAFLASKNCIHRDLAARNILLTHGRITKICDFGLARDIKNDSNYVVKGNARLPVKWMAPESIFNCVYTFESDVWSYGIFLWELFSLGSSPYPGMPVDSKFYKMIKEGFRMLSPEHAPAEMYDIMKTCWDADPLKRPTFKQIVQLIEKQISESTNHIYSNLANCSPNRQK
T6 sequence (P35968 20-1356): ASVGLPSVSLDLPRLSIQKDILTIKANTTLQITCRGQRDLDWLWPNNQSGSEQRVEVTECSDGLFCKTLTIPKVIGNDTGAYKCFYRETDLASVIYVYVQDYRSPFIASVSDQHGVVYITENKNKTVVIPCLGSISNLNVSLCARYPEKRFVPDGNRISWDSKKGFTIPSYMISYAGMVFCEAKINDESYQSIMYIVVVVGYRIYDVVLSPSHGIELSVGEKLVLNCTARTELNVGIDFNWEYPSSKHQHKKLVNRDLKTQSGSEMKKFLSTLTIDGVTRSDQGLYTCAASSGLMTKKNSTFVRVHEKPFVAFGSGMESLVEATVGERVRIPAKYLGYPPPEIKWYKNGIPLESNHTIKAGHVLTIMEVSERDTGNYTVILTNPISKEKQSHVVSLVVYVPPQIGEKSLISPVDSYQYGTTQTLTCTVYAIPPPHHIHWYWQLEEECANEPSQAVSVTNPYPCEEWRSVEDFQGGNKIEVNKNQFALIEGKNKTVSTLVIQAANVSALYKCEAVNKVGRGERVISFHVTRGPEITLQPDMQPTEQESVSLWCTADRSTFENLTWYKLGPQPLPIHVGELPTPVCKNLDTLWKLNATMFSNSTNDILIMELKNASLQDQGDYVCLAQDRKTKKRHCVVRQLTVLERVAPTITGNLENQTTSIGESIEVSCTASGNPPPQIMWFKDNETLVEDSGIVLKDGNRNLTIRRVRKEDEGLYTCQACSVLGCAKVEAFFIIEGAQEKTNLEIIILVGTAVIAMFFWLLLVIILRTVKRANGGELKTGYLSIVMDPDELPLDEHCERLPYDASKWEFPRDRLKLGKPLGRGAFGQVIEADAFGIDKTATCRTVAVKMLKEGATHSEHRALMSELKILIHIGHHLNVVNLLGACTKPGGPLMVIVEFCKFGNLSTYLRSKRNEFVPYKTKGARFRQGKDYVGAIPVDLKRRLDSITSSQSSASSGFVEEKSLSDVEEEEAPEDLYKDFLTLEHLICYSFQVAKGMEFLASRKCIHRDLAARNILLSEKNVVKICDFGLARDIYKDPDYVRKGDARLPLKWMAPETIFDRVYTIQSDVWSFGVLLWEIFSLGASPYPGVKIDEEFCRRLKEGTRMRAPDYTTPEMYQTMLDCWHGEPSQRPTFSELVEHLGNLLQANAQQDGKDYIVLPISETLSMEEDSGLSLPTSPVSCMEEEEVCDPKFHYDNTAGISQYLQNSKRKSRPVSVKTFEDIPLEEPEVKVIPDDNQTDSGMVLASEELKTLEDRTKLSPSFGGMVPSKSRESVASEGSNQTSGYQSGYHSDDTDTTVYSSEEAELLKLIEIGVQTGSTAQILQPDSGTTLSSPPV
Sequence of Plk1 (P53350 whole entry): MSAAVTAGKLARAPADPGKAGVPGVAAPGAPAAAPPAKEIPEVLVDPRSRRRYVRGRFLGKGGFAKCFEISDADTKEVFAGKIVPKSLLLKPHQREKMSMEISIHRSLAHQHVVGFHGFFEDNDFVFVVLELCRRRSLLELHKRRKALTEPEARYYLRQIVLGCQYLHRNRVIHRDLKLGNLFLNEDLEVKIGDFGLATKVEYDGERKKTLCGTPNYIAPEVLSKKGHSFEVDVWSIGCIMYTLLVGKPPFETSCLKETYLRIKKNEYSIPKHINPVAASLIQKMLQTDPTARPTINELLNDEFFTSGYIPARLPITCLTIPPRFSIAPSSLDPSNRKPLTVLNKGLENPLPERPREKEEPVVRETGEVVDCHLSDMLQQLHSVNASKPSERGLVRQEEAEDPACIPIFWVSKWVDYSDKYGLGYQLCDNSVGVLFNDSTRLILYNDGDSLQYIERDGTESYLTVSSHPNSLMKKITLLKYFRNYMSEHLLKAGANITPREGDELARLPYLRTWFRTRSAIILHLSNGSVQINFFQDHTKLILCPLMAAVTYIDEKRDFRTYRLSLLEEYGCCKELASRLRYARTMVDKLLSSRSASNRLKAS
T4 sequence (P53779 whole entry): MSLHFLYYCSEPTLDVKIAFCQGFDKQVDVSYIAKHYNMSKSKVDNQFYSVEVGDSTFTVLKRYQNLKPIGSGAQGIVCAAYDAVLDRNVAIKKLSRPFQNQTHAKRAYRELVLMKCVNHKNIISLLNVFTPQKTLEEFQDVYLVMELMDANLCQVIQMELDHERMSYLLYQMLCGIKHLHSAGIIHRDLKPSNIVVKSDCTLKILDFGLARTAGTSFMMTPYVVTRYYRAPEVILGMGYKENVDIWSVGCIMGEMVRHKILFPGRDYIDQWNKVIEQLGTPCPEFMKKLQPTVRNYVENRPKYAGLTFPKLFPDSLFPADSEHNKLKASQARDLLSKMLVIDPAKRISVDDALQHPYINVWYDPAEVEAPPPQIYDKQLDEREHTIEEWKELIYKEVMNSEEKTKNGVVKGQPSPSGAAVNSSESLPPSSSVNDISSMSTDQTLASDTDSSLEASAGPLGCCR
T14 sequence (P15056 whole entry): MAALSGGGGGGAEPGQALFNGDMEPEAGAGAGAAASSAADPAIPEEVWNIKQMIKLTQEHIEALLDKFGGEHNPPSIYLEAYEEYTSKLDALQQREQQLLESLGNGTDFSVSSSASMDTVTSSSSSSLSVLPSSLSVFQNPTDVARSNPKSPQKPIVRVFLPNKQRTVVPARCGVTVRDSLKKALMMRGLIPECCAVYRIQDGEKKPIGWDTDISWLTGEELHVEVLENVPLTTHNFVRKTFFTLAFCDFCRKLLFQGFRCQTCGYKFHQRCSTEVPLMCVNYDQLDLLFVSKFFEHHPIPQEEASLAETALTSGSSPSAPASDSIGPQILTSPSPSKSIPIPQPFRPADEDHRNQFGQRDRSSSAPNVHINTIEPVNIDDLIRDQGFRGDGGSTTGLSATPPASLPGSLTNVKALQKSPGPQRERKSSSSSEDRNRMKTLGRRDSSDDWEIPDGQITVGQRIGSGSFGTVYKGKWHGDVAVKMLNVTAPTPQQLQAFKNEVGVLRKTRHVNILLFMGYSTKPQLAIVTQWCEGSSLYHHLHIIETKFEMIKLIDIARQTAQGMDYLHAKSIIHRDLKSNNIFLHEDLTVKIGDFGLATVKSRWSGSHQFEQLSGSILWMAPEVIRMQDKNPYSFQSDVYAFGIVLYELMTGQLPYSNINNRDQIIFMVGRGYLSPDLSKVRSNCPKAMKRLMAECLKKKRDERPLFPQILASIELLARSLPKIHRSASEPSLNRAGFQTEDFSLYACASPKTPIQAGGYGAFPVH
T3 sequence (P08581 with tags, fused parts or gaps): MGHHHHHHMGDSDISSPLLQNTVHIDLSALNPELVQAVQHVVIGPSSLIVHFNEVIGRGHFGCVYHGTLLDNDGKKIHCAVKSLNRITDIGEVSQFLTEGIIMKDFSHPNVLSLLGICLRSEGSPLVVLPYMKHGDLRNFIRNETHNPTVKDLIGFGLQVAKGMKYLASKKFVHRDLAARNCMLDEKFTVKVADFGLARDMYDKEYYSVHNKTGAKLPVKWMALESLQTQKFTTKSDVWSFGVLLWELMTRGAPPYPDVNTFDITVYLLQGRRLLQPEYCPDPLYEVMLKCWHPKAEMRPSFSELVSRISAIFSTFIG
T8 sequence (P11362 458-765 C488A/C584S): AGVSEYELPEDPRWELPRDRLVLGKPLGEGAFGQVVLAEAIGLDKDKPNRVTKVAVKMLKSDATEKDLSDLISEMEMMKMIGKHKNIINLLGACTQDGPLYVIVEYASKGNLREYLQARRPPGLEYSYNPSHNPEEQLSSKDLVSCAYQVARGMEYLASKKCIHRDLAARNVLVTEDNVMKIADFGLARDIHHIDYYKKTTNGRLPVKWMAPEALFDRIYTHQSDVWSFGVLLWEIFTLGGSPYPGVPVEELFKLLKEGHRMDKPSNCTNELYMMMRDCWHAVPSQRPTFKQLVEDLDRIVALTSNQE
T12 sequence (P45983 whole entry): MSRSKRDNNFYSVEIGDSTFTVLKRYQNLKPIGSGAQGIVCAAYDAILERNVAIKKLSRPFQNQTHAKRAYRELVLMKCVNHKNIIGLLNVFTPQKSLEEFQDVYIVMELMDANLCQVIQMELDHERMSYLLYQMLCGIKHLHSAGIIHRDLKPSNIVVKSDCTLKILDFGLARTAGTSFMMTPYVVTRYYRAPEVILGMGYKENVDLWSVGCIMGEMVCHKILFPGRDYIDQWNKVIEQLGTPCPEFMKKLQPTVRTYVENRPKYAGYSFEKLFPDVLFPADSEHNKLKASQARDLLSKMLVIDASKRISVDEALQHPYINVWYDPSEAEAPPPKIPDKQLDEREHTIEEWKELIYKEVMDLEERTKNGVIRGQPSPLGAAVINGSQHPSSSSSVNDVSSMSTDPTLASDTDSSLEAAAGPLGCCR

CCN(CC)c1ccc(Nc2cnc3[nH]ccc3c2)cc1 [Compound P-0951]
≤ 10 µM: Flt1 | Akt3 | Kit | Met | Jnk3 | Itk | Kdr | B-Raf V600E | FGFR1 | Fak

O=C(c1ccc(Cl)cc1)c1c[nH]c2nccc(-c3cccnc3)c12 [Compound P-0113]
≤ 10 µM: Btk | Plk1 | Kdr | Ret

COc1cccc(C(=O)c2c[nH]c3ncc(-c4cccc(N)c4)cc23)c1 [Compound P-0579]
not listed: Akt3 | Met | Fak | Btk | Plk1 | Fms | c-Raf-1 | Stk6
≤ 10 µM: all other assays above

O=C(O)CCc1c[nH]c2ncccc12 [Compound P-0490]
≤ 10 µM: Plk1

Oc1cccc(Cc2c[nH]c3ncc(-c4cccnc4)cc23)c1F [Compound P-0778, 2-Fluoro-3-(5-pyridin-3-yl-1H-pyrrolo[2,3-b]pyridin-3-ylmethyl)-phenol]
≤ 10 µM: Kit | Met | Jnk3 | Itk | Fms | Ret | c-Raf-1 | B-Raf V600E | B-Raf

O=[N+]([O-])c1ccc(S(=O)(=O)NCc2ccnc3[nH]ccc23)cc1 [Compound P-0366]
≤ 10 µM: Plk1

O=S(=O)(Cc1ccccc1)NCc1c[nH]c2ncccc12 [Compound P-0581]
≤ 10 µM: Plk1

O=S(=O)(Cc1cccc(Cl)c1)NCc1c[nH]c2ncccc12 [Compound P-1138]
≤ 10 µM: Plk1 | B-Raf V600E

O=[N+]([O-])c1cccc(S(=O)(=O)NCc2ccnc3[nH]ccc23)c1 [Compound P-0480]
≤ 10 µM: Plk1

Clc1ccc(Cc2c[nH]c3nccc(-c4ccccc4)c23)cn1 [Compound P-0286]
≤ 10 µM: Plk1 | Ret

O=S(=O)(NCc1ccnc2[nH]ccc12)c1ccc(F)c(F)c1 [Compound P-0345]
≤ 10 µM: Plk1 | Stk6

Cc1cc(C(=O)c2c[nH]c3nccc(-c4cccc(N)c4)c23)n(C)n1 [Compound P-0332]
≤ 10 µM: Plk1
